System: HeLa cells
Assay: Aptamer uptake, confocal fluorescence microscopy of live HeLa cells
Assay type: cell-based
Conditions: 200 nM Cy5-labelled aptamer, increasing lengths of time, Lysotracker and early endosome GFP stains
Method: Cells were imaged by confocal microscopy after treatment with 200 nM Cy5-labelled E07 min A-1.0 aptamer (A-1.0) or 200 nM Cy5-labelled constructs (SQ1-1000-001). For aptamer uptake experiments, 1×10^4 cells were plated in each well of a μ-Slide 8 well ibiditreat chamber (IBIDI), in 300 μL DMEM containing 10% v/v FBS. For uptake experiments, 3.4×10^3 cells (HeLa, MDA-MB-231 and A549 cells) or 6.8×10^3 cells (Mcf-7) were plated in each well of a μ-Slide 18 well ibiditreat chamber (IBIDI), in 100 μL DMEM containing 10% v/v FBS. 5 hours after cells had adhered and 48 hours before imaging, media was replaced with 50 particles per cell (PPC) CellLight early endosome-GFP (Thermo Fisher Scientific) for overnight incubation at 37° C. Additionally, 200 μL DMEM aliquots containing 200 nM aptamer were added to cells at corresponding incubation time points. Subsequently, media was removed and replaced with 60 nM LysoTracker Red DND-99 (Thermo Fisher Scientific) in 100-200 μL DMEM for 1 hour at 37° C. Cells were then washed once with Hank's Balanced Salt Solution (HBSS) (Gibco). Finally, 100-200 μL imaging media (HBSS buffered with 20 mM 4-(2-hydroxyethyl)-1-piperazineethanesulfonic acid (HEPES), adjusted to pH 7.4) was added to cells. Confocal images were captured with an EVOS microscope or a Zeiss LSM510 laser scanning microscope using 60× oil objective lens. […]

A-1.0: E07min aptamer, EGFR-targeting, 5′ Cy5, 2′F U, C, SEQ ID 75 (GGACGGAUUUAAUCGCCGUAGAAAAGCAUGUCAAAGCCGGAACCGUCC; 5′ Cy5; 2′F U and C; 2′ fluorine)
intracellular localisation after internalisation: accumulate in lysosomes after internalisation
